Values of other authors in US6884908B2, “Process for isolation of hepatoprotective agent “oleanolic acid” from Lantana camera” (Council of Scientific & Industrial Research, priority 2003, dated 2005).

Legend:
[1] = system: azoxymethane-induced intestinal tumor; conditions: rats, 200 ppm in diet for 3 weeks
[2] = system: paw edema produced by dextran; conditions: rats and mice
[3] = system: experimental hyperlipidemic rats; conditions: 50 mg/kg, P.O. for 9 days
[4] = system: adjuvant induced arthritis; conditions: rats and mice
[5] = system: CCl4-induced liver parenchymal cell necrosis, steatosis and degeneration; conditions: in vivo

With `CC1(C)CC[C@]2(C(=O)O)CC[C@]3(C)C(=CC[C@@H]4[C@@]5(C)CC[C@H](O)C(C)(C)[C@@H]5CC[C@]43C)[C@@H]2C1` [oleanolic acid, (3-O-β-hydroxy-olea-12-en-28-oic acid] as the compound, how does the “incidence and multiplicity of azoxymethane-induced intestinal tumor” value [1] read?
The value was “decreases the incidence and multiplicity”.

What about the “paw edema produced by dextran” value [2] of the same compound?
The value was “inhibiting”.

And the “decrease of elevated blood cholesterol level” value [3]?
Its value is “more than 40%”.

What about the “decrease of elevated β-lipoprotein level” value [3] of the same compound?
The value was “more than 40%”.

What about the adjuvant induced arthritis [4] of the same compound?
Its adjuvant induced arthritis is “suppressing”.

And the “CCl4-induced liver parenchymal cell necrosis, steatosis and degeneration” value [5]?
Its value is “decreases”.
